What was measured:
[1] = molecular target: T1, Lysine-specific demethylase 4C (Homo sapiens, UniProt Q9H3R0); assay: Binding affinity to 6His-tagged and human KDM4C tandem TUDOR domain (874 to 990 residues) expressed in Escherichia coli BL21(DE3)-T1R by ITC method
T1 sequence (Q9H3R0 whole entry): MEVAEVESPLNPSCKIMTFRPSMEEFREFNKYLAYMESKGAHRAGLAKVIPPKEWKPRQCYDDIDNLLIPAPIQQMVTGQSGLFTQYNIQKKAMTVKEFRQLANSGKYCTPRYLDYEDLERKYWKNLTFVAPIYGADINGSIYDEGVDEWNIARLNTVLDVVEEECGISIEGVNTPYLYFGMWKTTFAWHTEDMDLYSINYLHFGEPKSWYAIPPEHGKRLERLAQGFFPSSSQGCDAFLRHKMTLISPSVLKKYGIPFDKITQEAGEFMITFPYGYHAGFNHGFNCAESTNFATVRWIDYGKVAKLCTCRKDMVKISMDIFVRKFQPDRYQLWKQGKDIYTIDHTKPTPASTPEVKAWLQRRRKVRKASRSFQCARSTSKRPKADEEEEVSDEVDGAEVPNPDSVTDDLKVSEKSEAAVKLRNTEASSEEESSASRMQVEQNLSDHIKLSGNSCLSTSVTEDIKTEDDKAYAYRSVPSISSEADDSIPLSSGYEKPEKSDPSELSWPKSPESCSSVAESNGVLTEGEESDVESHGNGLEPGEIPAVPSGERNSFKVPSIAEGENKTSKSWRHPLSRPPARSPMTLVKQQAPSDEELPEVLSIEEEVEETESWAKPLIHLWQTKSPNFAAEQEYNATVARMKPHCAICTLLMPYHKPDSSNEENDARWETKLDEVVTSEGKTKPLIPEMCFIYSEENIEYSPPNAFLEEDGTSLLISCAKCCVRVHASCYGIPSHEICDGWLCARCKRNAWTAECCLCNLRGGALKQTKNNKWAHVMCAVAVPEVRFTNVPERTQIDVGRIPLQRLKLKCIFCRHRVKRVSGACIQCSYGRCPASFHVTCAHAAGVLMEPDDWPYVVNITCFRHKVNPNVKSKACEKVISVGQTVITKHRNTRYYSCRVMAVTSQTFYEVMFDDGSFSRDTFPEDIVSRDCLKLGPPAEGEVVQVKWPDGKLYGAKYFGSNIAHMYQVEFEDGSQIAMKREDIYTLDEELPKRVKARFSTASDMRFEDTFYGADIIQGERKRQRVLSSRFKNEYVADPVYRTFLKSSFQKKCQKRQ

[2] = molecular target: T2, Lysine-specific demethylase 4A (Homo sapiens, UniProt O75164); assay: Inhibition of H3(1-10)K4me3 peptide binding to thrombin cleavable N-terminal 6His tagged and 13C-IVLM labeled human KDM4A tandem TUDOR domain (897 to 1011 residues) expressed in Escherichia coli BL21(DE3)-T1R by ITC method
T2 sequence (O75164 whole entry): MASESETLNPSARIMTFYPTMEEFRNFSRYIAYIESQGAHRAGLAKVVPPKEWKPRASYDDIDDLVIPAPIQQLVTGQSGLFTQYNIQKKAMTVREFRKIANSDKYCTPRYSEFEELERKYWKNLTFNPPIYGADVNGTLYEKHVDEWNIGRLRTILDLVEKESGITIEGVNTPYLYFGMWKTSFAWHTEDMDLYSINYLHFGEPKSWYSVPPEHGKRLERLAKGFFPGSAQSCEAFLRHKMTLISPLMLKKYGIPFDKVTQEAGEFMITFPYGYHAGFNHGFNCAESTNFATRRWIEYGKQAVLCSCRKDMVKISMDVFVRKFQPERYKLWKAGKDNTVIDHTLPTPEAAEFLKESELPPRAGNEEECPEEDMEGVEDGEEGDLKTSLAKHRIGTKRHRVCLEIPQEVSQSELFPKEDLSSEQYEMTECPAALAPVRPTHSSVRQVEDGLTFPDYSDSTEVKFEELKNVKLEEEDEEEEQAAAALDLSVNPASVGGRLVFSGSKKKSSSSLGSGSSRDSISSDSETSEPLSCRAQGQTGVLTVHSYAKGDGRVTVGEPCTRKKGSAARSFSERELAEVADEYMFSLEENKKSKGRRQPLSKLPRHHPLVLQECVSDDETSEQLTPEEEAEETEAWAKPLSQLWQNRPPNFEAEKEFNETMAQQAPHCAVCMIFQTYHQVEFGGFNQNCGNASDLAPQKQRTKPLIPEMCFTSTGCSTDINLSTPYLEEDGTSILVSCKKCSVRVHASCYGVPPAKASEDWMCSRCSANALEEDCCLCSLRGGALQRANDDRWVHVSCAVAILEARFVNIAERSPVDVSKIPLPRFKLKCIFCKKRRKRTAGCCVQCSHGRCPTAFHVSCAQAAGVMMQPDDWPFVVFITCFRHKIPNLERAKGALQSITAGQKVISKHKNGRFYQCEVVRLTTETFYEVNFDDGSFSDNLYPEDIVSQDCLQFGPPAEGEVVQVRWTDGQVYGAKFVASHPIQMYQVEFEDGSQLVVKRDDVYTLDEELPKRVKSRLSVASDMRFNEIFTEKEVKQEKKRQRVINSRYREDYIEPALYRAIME

[3] = molecular target: T3, E3 ubiquitin-protein ligase UHRF1 (Homo sapiens, UniProt Q96T88); assay: Binding affinity to 6His-tagged and human UHRF1 tandem TUDOR domain (126 to 285 residues) expressed in Escherichia coli BL21(DE3)-T1R by ITC method
T3 sequence (Q96T88 whole entry): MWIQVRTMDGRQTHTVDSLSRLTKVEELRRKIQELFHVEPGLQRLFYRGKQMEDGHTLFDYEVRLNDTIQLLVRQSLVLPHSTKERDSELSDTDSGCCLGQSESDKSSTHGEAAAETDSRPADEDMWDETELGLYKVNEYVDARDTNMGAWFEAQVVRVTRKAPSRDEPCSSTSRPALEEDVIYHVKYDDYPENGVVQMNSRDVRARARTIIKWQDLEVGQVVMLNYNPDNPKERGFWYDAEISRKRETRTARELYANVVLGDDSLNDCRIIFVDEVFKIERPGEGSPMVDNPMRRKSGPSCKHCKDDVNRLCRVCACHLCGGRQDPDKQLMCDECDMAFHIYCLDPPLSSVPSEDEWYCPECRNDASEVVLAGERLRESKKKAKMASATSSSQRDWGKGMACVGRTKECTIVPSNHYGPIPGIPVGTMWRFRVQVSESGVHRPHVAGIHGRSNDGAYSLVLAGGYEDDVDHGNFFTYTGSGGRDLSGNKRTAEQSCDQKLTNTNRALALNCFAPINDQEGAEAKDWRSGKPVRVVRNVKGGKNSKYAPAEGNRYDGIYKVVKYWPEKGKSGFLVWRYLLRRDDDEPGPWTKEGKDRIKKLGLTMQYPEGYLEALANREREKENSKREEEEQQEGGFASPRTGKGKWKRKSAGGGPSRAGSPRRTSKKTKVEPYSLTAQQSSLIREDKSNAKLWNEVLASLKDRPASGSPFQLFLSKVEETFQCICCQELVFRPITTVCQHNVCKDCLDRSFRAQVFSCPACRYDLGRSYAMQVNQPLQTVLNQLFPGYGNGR

Kd [1]: 129 µM
Ki [2]: 170 µM
Kd [3]: Not Active
SMILES: CN(C)C[C@H]1C2CCC(c3ccccc3)(C2)[C@H]1O (stereo partly drawn)
